Results as given in patent US9834535B2, “Sulfamate derivative compounds for use in treating or alleviating pain” (Bio-Pharm Solutions Co., Ltd., priority 2013, dated 2017).

Assays:
[1] = test system: SNL model; assay: Antiallodynic activity on Chung model (SNL, spinal nerve ligation; von Frey); format: in vivo, Sprague-Dawley rats; conditions: rat, oral, von Frey, 1 h
Protocol: Male. Sprague-Dawley rats (200-220 g, Orient Bio, Korea) were habituated for 1 week before the experiment and allowed free access to food and water throughout the experimentation. Room temperature and humidity were maintained at 24±2° C. and 50±10%, respectively. Neuropathic surgery (SNL, Spinal nerve ligation) model was clone as described in Kim and Chung (1992). Briefly, animal under gaseous anesthesia with isoflurane a 4:4 flow ratio of NO2. The left lumber spinal nerve L5 and L6 were isolated and tightly ligated with 4-0 silk thread. The wound was treated with a gentamicin antibiotics solution (4 mg/kg, 4 ul/g, bw), and the wound muscle was closed with cat cut chrom 4/0 thread and skin was closed dafilon 4/0 tread. Sham controls were prepared in the same manner as the spinal nerves were exposed, but no ligated L5 and L6 nerves. But, vehicle controls were identical to SNL model, except for administration of vehicles.
Tactile sensitivity (Mechanical allodynia) was evaluated using von Frey monofilaments before and after treatment and animals were used withdrawal threshold value was less than 4 g. One week after surgery, SNL-operated animals (n=4˜6), sham-operated animals (n=4˜10) and vehicle-operated animals (n=4˜13) were tested for tactile sensitivity with von Frey monofilaments 3 trials in each animal. All Animals were placed in a stainless steel mashed chamber and habituated for 30 min in the test box. The tactile sensitivity for ipsilateral hind paw was measured using the up-and-down method (Dixon, 1980) with seven von Frey monofilaments (0.4, 1, 2, 4, 6, 8, and 15 g) to 3 trials. Tactile sensitivity test was followed by Dixon's method (Dixon, 1980). The 50% paw withdrawal threshold for each paw was calculated using the following formula: [Xth] log=[vFr] log+ky where [vFr] is the force of the last von Frey used, k=0.2249 which is the average interval (in log units) between the von Frey monofilaments, and y is a value that depends upon the pattern of withdrawal responses (Dixon, 1980).
All animals were fasted 18 h before the administration of the compounds. The antiallodynic effect of the compounds were evaluated at the various dose (n=5˜6), orally administrated in a volume of 5 ul/g, bw in a vehicle of 30% (v/v) PEG 400 or 20% (v/v) Tween 80 or Saline. […]
The relative values compared to the sham group (% control) were calculated and shown in Table 5, which show an antiallodynic effect of the test compounds on SNL model in rats.

[2] = test system: acetic acid-induced writhes (abdominal constriction); assay: Writhing test (0.6% acetic acid); format: in vivo, ICR mice; conditions: mouse, oral, 0.5 h; read-out: Writ htest: ED50
Protocol: To examine the pain relief effect of the sulfamate derivative compounds, a writhing test was conducted in general pain animal model referring to Fischer, L. G. et al. (2008).
(§1) ICR mice (male, 24-28 g; Orient Bio, Korea) were habituated before test in test room for 1 hour. Animals were fasted 2 hr, before administration of compounds. Compounds was orally administered at the close of 20 mg/kg, 10 ul/g, bw (n=3˜5/group). All compounds were dissolved in a vehicle of 30% (v/v) PEG 400 or 20% (v/v) Tween 80. The control group was treated the vehicle without compounds.
[…] Animals were habituated in the cage for 5 min. 5 min after habituation, the number of writhes (abdominal constriction) for 15 min was counted referring to Korzeniewska-Rybicka, I. et al. (1998) and compared with that of a control.

[3] = test system: tail-flick withdrawal latency; assay: Tail-flick test; format: in vivo, ICR mice; conditions: mouse, oral
Protocol: To examine the pain relief effect of the sulfamate compounds, a tail-flick test was conducted in general pain animal model referring to Current Protocols in Neuroscience; Behavioral Neuroscience Unit 8.9.
as §1, with “(male, 25-30” for “(male, 24-28”, “2 hr” for “2 hr,”, “compounds. Each of Compound” for “compounds. Compounds”, “of 150” for “of 20”, “bw (n=7˜10/group).” for “bw (n=3˜5/group).”
After the administration of compounds, the mice tail were put on a tail-flick analgesia meter. To avoid tissue damage, maximal exposure time to pain stimuli was restricted to 15 s. The withdrawal latency was measured as the time to the point when each mouse response to the stimulus. The relative values compared to the control (% control) were calculated.
The relative values compared to the sham were calculated and shown in Table 12, which show effect of the compound of examples on tail-flick test in […].

CC1(C)O[C@@H](COS(N)(=O)=O)[C@H](c2ccccc2Cl)O1 [Example 2, ((4S,5S)-5-(2-chlorophenyl)-2,2-dimethyl-1,3-dioxolan-4-yl)methyl sulfamate]
ED50 [1]: 18.2 mg/kg
ED50 [2]: 28.4 mg/kg
tail-flick test: dose [3]: > 200 mg/kg
